Data: patent US6600035B1, “6-(substituted methylene) penems and intermediates” (SMithKline Beecham p.l.c., priority 1992, dated 2003)

Tests used:
[1] = target: PC1 β-lactamase enzyme (Staphylococcus aureus, UniProt P00807); assay: biochemical
[2] = target: OXA-1 β-lactamase enzyme (Escherichia coli, UniProt P13661); assay: biochemical
[3] = target: TEM-1 β-lactamase enzyme (Escherichia coli, UniProt P62593); assay: β-lactamase inhibitory activity: 50% inhibition of β-lactam hydrolysis, TEM-1; type: biochemical
[4] = target: P. mirabilis β-lactamase enzyme; assay: β-lactamase inhibitory activity: 50% inhibition of β-lactam hydrolysis, P. mirabilis; type: biochemical; conditions: read-out: I50 (concentration required to achieve 50% inhibition of β-lactam hydrolysis)
[5] = target: BC II β-lactamase enzyme (Bacillus cereus, UniProt P04190); assay: β-lactamase inhibitory activity: 50% inhibition of β-lactam hydrolysis, BC II; type: biochemical
[6] = target: P99 β-lactamase enzyme (Enterobacter cloacae, UniProt P05364); assay: biochemical
P99 β-lactamase enzyme, sequence (P05364 21-381): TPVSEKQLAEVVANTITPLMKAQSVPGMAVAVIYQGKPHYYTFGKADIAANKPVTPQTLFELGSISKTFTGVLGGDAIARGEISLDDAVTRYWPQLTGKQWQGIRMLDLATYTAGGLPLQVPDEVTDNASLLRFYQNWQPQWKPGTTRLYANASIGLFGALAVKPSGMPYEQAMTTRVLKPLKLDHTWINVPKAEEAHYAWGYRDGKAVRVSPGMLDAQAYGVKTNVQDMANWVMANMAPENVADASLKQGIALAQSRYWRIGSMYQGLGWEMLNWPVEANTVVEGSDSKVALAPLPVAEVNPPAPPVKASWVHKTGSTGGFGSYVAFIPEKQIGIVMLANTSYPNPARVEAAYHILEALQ

OXA-1 β-lactamase enzyme, sequence (P13661 26-276): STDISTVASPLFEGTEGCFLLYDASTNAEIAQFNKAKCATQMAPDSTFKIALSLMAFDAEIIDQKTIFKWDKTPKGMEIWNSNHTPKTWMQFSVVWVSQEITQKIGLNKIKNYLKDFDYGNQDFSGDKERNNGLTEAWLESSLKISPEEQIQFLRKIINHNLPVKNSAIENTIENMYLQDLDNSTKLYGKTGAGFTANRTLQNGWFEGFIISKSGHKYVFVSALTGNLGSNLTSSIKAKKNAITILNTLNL
BC II β-lactamase enzyme, sequence (P04190 31-257): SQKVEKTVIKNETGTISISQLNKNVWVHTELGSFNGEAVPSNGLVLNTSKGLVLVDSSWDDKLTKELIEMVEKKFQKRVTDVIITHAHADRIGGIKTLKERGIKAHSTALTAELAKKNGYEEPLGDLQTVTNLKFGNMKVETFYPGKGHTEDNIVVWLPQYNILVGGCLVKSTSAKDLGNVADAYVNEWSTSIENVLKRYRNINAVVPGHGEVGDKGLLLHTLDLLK
PC1 β-lactamase enzyme, sequence (P00807 25-281): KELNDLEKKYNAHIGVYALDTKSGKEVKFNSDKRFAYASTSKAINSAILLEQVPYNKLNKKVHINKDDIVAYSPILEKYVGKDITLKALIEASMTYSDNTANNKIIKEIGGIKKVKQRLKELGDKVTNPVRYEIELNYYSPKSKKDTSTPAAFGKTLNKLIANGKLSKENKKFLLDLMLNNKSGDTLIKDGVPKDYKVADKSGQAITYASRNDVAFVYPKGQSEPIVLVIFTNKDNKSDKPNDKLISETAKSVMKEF
TEM-1 β-lactamase enzyme, sequence (P62593 24-286 limits assumed): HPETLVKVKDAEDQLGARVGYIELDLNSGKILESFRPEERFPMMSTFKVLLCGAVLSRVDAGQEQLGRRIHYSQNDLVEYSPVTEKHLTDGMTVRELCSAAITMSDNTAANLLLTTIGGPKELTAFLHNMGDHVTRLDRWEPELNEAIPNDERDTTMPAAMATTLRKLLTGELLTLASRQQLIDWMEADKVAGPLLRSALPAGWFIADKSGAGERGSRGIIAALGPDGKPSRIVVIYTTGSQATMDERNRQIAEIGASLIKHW

## O=C(O)C1=CS[C@@H]2/C(=C\c3cn4c(n3)SCC4)C(=O)N12 [Example 1, Sodium (5R)-6[(Z)-(2,3-dihydroimidazo[2,1-b]thiazol-6-yl)methylene]-penem-3-carboxylate]
[1]
  IC50: 0.01 µM
[2]
  IC50: 0.01 µM
[3]
  IC50: 0.01 µM
[4]
  IC50: 0.01 µM
[5]
  IC50: 48.6 µM
[6]
  IC50: < 0.005 µM
